From patent publication US7781437B2, “Substituted heterocyclic compounds with CXCR3 antagonist activity” (Schering Corporation, priority 2005, dated 2010)
Where two headings read alike, the source gives them in different places.

Target: T1, Human CXCR3 (N-delta 4) (Homo sapiens, UniProt P49682)
T1 construct: CD8 leader (N); Flag tag; expressed in transfected cells; membrane preparation
T1 sequence (P49682 5-368 limits assumed): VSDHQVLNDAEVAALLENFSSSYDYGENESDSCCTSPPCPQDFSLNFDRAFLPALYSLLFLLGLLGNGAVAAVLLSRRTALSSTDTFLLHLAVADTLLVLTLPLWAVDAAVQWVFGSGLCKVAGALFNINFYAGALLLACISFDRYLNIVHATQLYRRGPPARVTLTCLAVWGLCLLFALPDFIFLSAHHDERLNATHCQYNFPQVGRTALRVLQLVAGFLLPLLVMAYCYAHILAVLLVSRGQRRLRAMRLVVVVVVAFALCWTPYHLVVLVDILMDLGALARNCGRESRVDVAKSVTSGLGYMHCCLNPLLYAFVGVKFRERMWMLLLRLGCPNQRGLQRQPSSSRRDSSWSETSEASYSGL
Assay: Human CXCR3 (N-delta 4) Scintillation Proximity Assay (SPA), [125I] IP-10 binding to Ba/F3-hCXCR3 (N-delta 4) membranes
Settings: [125I] IP-10 displacement
Source text: The inventive compounds can readily be evaluated to determine activity at The CXCR3 receptors by known methods, such as, for example, Development of Human CXCR3 (N-delta 4) Binding Assay.
Cloning and Expression of Human CXCR3 (N-delta 4):
The DNA encoding human CXCR3 was cloned by PCR using human genomic DNA (Promega, Madison, Wis.) as a template. The PCR primers were designed based on the published sequence of human orphan receptor GPR9 (1) with incorporated restriction sites, a Kozak consensus sequence, CD8 leader and Flag tag. The PCR product was subcloned into the mammalian expression vector pME18Sneo, a derivative of the SR-alpha expression vector (designated as pME18Sneo-hCXCR3 (N-delta 4).
IL-3-dependent mouse pro-B cells Ba/F3 were transfected by electroporation in 0.4 ml Dulbecco's PBS containing 4×10^6 cells with 20 μg of pME18Sneo-hCXCR3 (N-delta 4) plasmid DNA. Cells were pulsed at 400 Volts, 100 OHMs, 960 μFd. The transfected cells were under selection with 1 mg/ml G418 (Life Technologies, Gaithersburg, Md.). G418-resistant Ba/F3 clones were screened for CXCR3 expression by specific binding of [^125I] IP-10 (NEN Life Science Products, Boston, Mass.).
Preparation of Ba/F3-hCXCR3 (N-delta 4) membranes:
Ba/F3 cells expressing human CXCR3 (N-delta 4) were pelleted and resuspended in the lysis buffer containing 10 mM HEPES , pH 7.5 and Complete® protease inhibitors (1 tablet per 100 ml) (Boehringer Mannheim, Indianapolis, Ind.) at a cell density of 20×10^6 cells per ml. After 5 minutes incubation on ice, cells were transferred to 4639 cell disruption bomb (Parr Instrument, Moline, Ill.) and applied with 1,500 psi of nitrogen for 30 minutes on ice. Large cellular debris was removed by centrifugation at 1,000×g. Cell membrane in the supernatant was sedimented at 100,000×g. The membrane was resuspended in the lysis buffer supplemented with 10% sucrose and stored at −80° C. Total protein concentration of the membrane was determined by BCA method from Pierce (Rockford, Ill.).
Human CXCR3 (N-delta 4) Scintillation Proximitv Assay (SPA):
For each assay point, 2 μg of membrane was preincubated for 1 hr with 300 μg wheat germ agglutinin (WGA) coated SPA beads (Amersham, Arlington Heights, Ill.) in the binding buffer (50 mM HEPES, 1 mM CaCl2, 5 mM MgCl2, 125 mM NaCI, 0.002% NaN3, 1.0% BSA) at room temperature. The beads were spun down, washed once, resuspended in the binding buffer and transferred to a 96-well Isoplate (Wallac, Gaithersburg, Md.). 25 pM of [^125I] IP-10 with tested compounds in a series of titration were added to start the reaction. After 3 hr reaction at room temperature, the amount of [^125I] IP-10 bound to the SPA beads was determined with a Wallac 1450 Microbeta counter.
The Ki values for the various example compounds of the present invention are given in the afore-mentioned Table 1. From these values, it would be apparent to the skilled artisan that the compounds of the invention have excellent utility CXCR3 antagonists.

[1] = specific Ki values (Table 2), read-out: Ki

For `CC[C@H]1CN(c2c(Cl)nc(-c3nnc(N)o3)c(=O)n2C)CCN1C1CCN(Cc2ccc(Cl)cc2)CC1` [Compound Number 1], the Ki (read-out: Ki rating) was less than 0.025 µM and the Ki [1] was 0.0019 µM.
In the case of `CCNc1nnc(-c2nc(C)c(N3CCN(C4CCN(C(=O)c5ccc(Cl)nc5N)CC4)[C@@H](CC)C3)n(C)c2=O)o1` [Compound Number 2], the Ki (read-out: Ki rating) is reported as less than 0.025 µM and the Ki [1] is reported as 0.0026 µM.
With `CC[C@H]1CN(c2c(Cl)nc(-c3nnc(N)o3)c(=O)n2C)CCN1C1CCN(C(=O)c2ccc(Cl)nc2N)CC1` [Compound Number 3] the Ki (read-out: Ki rating) was less than 0.025 µM and the Ki [1] was 0.0075 µM.
`CC[C@H]1CN(c2c(Cl)nc(C(N)=O)c(=O)n2C)CCN1C1CCN(Cc2ccc(Cl)cc2F)CC1` [Compound Number 4] showed a Ki (read-out: Ki rating) of less than 0.025 µM and a Ki [1] of 0.0083 µM.
In the case of `CC[C@H]1CN(c2c(Cl)nc(-c3nnc(N)o3)c(=O)n2C)CCN1C1CCN(Cc2ccc(Cl)nc2)CC1` [Compound Number 5], the Ki (read-out: Ki rating) is reported as less than 0.025 µM and the Ki [1] is reported as 0.0019 µM.
With `CC[C@H]1CN(c2c(Cl)nc(-c3nnc(N)o3)c(=O)n2C)CCN1C1CCN(C(=O)c2ccc(Cl)cc2)CC1` [Compound Number 6] the Ki (read-out: Ki rating) was 0.025 to 0.1 µM.
For `CC[C@H]1CN(c2c(C)nc(C(N)=O)c(=O)n2C)CCN1C1CCN(Cc2ccc(Cl)cc2F)CC1` [Compound Number 7], the Ki (read-out: Ki rating) was 0.025 to 0.1 µM.
In the case of `CC[C@H]1CN(c2c(Cl)nc(C(=O)OC)c(=O)n2C)CCN1C1CCN(Cc2ccc(Cl)cc2F)CC1` [Compound Number 8], the Ki (read-out: Ki rating) is reported as 0.025 to 0.1 µM.
Molecule `CC[C@H]1CN(c2c(Cl)nc(-c3nnc(N)o3)c(=O)n2C)CCN1C1CCN(Cc2cc(F)c(Cl)cc2F)CC1` [Compound Number 9] has a Ki (read-out: Ki rating) of 0.025 to 0.1 µM.
`CC[C@H]1CN(c2c(Cl)nc(C(N)=O)c(=O)n2C)CCN1C1CCN(Cc2ccc(Cl)nc2N)CC1` [Compound Number 10] showed a Ki (read-out: Ki rating) of 0.025 to 0.1 µM.
`CC[C@H]1CN(c2c(Cl)nc(-c3nnc(N)o3)c(=O)n2C)CCN1C1CCN(Cc2cc(F)c(F)cc2Cl)CC1` [Compound Number 11] showed a Ki (read-out: Ki rating) of 0.025 to 0.1 µM.
Molecule `CC[C@H]1CN(c2cnc(C(N)=O)c(=O)n2C)CCN1C1CCN(Cc2ccc(Cl)nc2N)CC1` [Compound Number 12] has a Ki (read-out: Ki rating) greater than 0.1 µM.
For `CC[C@H]1CN(c2nc(O)c(-c3nnc(N)o3)nc2Cl)CCN1C1CCN(Cc2ccc(Cl)cc2)CC1` [Compound Number 13], the Ki (read-out: Ki rating) was greater than 0.1 µM.
